Results reported in patent publication US5929038A, “Pharmaceutical preparations which inhibit hepatitis B virus (HBV) replication” (Choongwae Pharmaceutical Co., Ltd., priority 1992, dated 1999).
Several values for one entry are separate records, joined by “and”; a condition that tells them apart may be missing. Equal values may be shown once. Read-outs that look alike come from different tables or passages of the source.

What was measured:
[1] = test system: HBV DNA replication; test: Effects on HBV DNA replication in 2.2.15 cells in culture (intracellular HBV DNA and HBV virion DNA); format: cell-based, hepatitis B virus
[2] = test system: 2.2.15 cells; test: Cell toxicity test (neutral red dye uptake); format: cell-based; conditions: plate 23
Description: Toxicity testing was performed in 96-well flat bottomed tissue culture plates. These cells were cultured and treated on same schedule as the test compounds used for antiviral evaluation (example 1). Each group at four concentrations was tested in triplicate cultures. Uptake of neutral red dye was used to determine the relative level of toxicity. The absorbance of internalized dye at 510 nm (A510) was used for the quantitative analysis. Values are presented as a percentage of the average A510 values (mean ± standard deviation) in 9 separate cultures of untreated cells maintained on the same 96-well plate as used for the test compound. The percentage of dye uptake in the 9 controlled cultures on plate 23 was 100±4.

[3] = test system: mice; format: in vivo; conditions: for Alkaline phosphatase / SGOT / Triglyceride: serum at 24 hours; for Fatalities: 24 hours, ten mice
[4] = test system: gram positive bacteria; conditions: cited from earlier work
[5] = test system: hepatic damage induced by carbon tetrachloride; conditions: laboratory animals; cited from earlier work
[6] = test system: liver damage caused by α-amantin intoxication; conditions: mice; cited from earlier work
[7] = test system: Sarcoma 180 cells; conditions: cited from earlier work
[8] = 1000 μM + Gly. (glucosidase, no incubation), 24 hrs following the 9th day of treatment

## OCC1=CC(O)C2C=COC(O[C@@H]3O[C@H](CO)[C@@H](O)[C@H](O)[C@H]3O)C12 (stereo partly drawn) [Aucubin, 1,4,5, 7α-tetrahydro-5-hydroxy-17-(hydroxymethyl)cyclopenta[c]pyran-1-yl-β-D-glucopyranose]
[1]; 1000 μM + 30'Gly.
  HBV Virion DNA, Day 9: 2 pg/ml culture medium and 3 pg/ml culture medium
[1]; [8]
  Intracellular HBV DNA, Mono.: 2.2 pg/μg cell DNA and 2.1 pg/μg cell DNA and 2.3 pg/μg cell DNA and 2.6 pg/μg cell DNA
  Intracellular HBV DNA, RI (Replicating Intermediate): 3 pg/μg cell DNA and 2 pg/μg cell DNA
[1]; 1000 μM + Gly., Day 0, before first dose
  HBV Virion DNA, Day 0: 64 pg/ml culture medium and 81 pg/ml culture medium and 80 pg/ml culture medium
[1]; 1000 μM + Gly., Day 3
  HBV Virion DNA, Day 3: 70 pg/ml culture medium and 67 pg/ml culture medium
[1]; 1000 μM + Gly., Day 6
  HBV Virion DNA, Day 6: 25 pg/ml culture medium and 18 pg/ml culture medium and 22 pg/ml culture medium and 20 pg/ml culture medium
[1]; 1000 μM + Gly.
  HBV Virion DNA, Day 9: 1 pg/ml culture medium
[2]; Aucubin + 30'GLY. (preincubated 30 min with glucosidase), 300 μM
  Amount of dye uptake: 99 ± 2 % of control
[2]; Aucubin + 30'GLY. (preincubated 30 min with glucosidase), 1000 μM
  Amount of dye uptake: 99 ± 2 % of control
[2]; Aucubin + 30'GLY. (preincubated 30 min with glucosidase), 3000 μM
  Amount of dye uptake: 82 ± 2 % of control
[2]; Aucubin + 30'GLY. (preincubated 30 min with glucosidase), 10,000 μM
  Amount of dye uptake: 67 ± 3 % of control
[2]; Aucubin + GLY. (glucosidase without preincubation), 300 μM
  Amount of dye uptake: 99 ± 2 % of control
[2]; Aucubin + GLY. (glucosidase without preincubation), 1000 μM
  Amount of dye uptake: 99 ± 1 % of control
[2]; Aucubin + GLY. (glucosidase without preincubation), 3000 μM
  Amount of dye uptake: 93 ± 5 % of control
[2]; Aucubin + GLY. (glucosidase without preincubation), 10,000 μM
  Amount of dye uptake: 63 ± 6 % of control
[2]; Aucubin alone, 300 μM
  Amount of dye uptake: 99 ± 1 % of control
[2]; Aucubin alone, 1000 μM
  Amount of dye uptake: 100 ± 1 % of control
[2]; Aucubin alone, 3000 μM
  Amount of dye uptake: 85 ± 3 % of control
[2]; Aucubin alone, 10,000 μM
  Amount of dye uptake: 45 ± 3 % of control
[3]; 100 mg/kg i.p.
  Alkaline phosphatase: 236 IU/L
  SGOT: 261 IU/L
[3]; 100 mg/kg intraperitoneal single dose
  Fatalities: 0 No.
[3]; 300 mg/kg i.p.
  Alkaline phosphatase: 157 IU/L
  SGOT: 194 IU/L
  Triglyceride: 35 mg/dL
[3]; 300 mg/kg intraperitoneal single dose
  Fatalities: 0 No.
[3]; 600 mg/kg i.p.
  Alkaline phosphatase: 135 IU/L
  SGOT: 179 IU/L
  Triglyceride: 39 mg/dL
[3]; 600 mg/kg intraperitoneal single dose
  Fatalities: 0 No.
[3]; 900 mg/kg i.p.
  SGOT: 162 IU/L
  Triglyceride: 51 mg/dL
[3]; 900 mg/kg intraperitoneal single dose
  Fatalities: 0 No.
[3]; 100-900 mg/kg i.p.
  fatality (in words): no fatality
[3]; high dose
  activities of SGOT and alkaline phosphatase: slight decline
  serious toxic effect (in words): no serious toxic effect occurred
  triglyceride contents: elevated slightly
[3]; mouse, in vivo, ip
  minimum fatal dose: more than 900 mg/kg
[4]
  Antibacterial activity: Antibacterial activity was noted mainly on gram positive bacteria
[5]
  Liver-protective activity against carbon tetrachloride: protect the liver from hepatic damage induced by carbon tetrachloride intoxication
[6]
  Liver-protective activity against α-amantin: protects the liver from damages caused by α-amantin intoxication in mice
[7]
  Inhibitory effects on RNA and protein biosynthesis: can exert inhibitory effects on RNA and protein biosynthesis in Sarcoma 180 cells
